PubChem BioAssay (NCI)
Values joined by “and” are separate entries in the source; they are usually repeats but may differ in a detail not shown here. Identical values can stand only once.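 Tested at 5 concentrations; 48 h exposure; 96-well plates; endpoints linearly interpolated, else capped at highest concentration. Here, GI50 denotes the concentration required for 50% inhibition of growth. TGI: total growth inhibition.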

Key:
Assay in all cases: NCI anticancer screen, dose series, 48 h
DLD-1 colon = tested on: DLD-1 colon
DMS 114 small cell lung = tested on: DMS 114 small cell lung
DMS 273 small cell lung = tested on: DMS 273 small cell lung
HOP-18 NSCLC = tested on: HOP-18 NSCLC
KM20L2 colon = tested on: KM20L2 colon
LOX IMVI melanoma = tested on: LOX IMVI melanoma
LXFL 529 NSCLC = tested on: LXFL 529 NSCLC
M19-MEL melanoma = tested on: M19-MEL melanoma
RXF-631 renal = tested on: RXF-631 renal
SF-268 CNS = tested on: SF-268 CNS
SNB-78 CNS = tested on: SNB-78 CNS
UACC-257 melanoma = tested on: UACC-257 melanoma
XF 498 CNS = tested on: XF 498 CNS

| Compound | TGI (DLD-1 colon) | TGI (DMS 114 small cell lung) | TGI (DMS 273 small cell lung) | TGI (HOP-18 NSCLC) | TGI (KM20L2 colon) | TGI (LOX IMVI melanoma) | TGI (LXFL 529 NSCLC) | TGI (M19-MEL melanoma) | TGI (RXF-631 renal) [µM] | TGI (SF-268 CNS) | TGI (SNB-78 CNS) | TGI (UACC-257 melanoma) | TGI (XF 498 CNS) | GI50 (DMS 114 small cell lung) | GI50 (XF 498 CNS) |
| --- | --- | --- | --- | --- | --- | --- | --- | --- | --- | --- | --- | --- | --- | --- | --- |
| C=CN1C(=O)OC[C@@H]1c1ccccc1 | > 100 µM | > 100 µM | 50.7 µM | > 100 µM | > 100 µM | > 100 µM | > 100 µM | > 100 µM | > 100 | > 100 µM | > 100 µM | > 100 µM | > 100 µM |  |  |
| C=CCN(N=O)C(=O)N(CCCC(NC(C)=O)C(=O)NCc1ccccc1)Cc1ccccc1 (stereo not drawn) |  | > 100 µM | > 100 µM |  | > 100 µM | > 100 µM | > 100 µM | > 100 µM | > 100 | > 100 µM |  | > 100 µM | > 100 µM |  |  |
| O/N=C/c1cc2c(cc1Br)OCO2 | > 100 µM |  | > 100 µM | > 100 µM | > 100 µM | > 100 µM | > 100 µM | > 100 µM | > 100 |  | > 100 µM | > 100 µM |  |  |  |
| COc1cc(C2c3cc4c(cc3[C@@H](NCCN3CCCCC3)C3COC(=O)[C@H]23)OCO4)cc(OC)c1O (stereo partly drawn) | 6.78 µM and 10.2 µM | 10.9 µM and 16 µM | 1.27 µM and 1.44 µM | 3.73 µM and 29.4 µM | 8.14 µM and 11.5 µM | 1.72 µM and 1.61 µM | 14.5 µM and 15.2 µM | 5.4 µM and 4.14 µM |  | 6 µM and 15.8 µM | 8.09 µM and 23.3 µM | 41.4 µM and 85 µM | 4.01 µM and 4.2 µM | 0.51 µM and 1.64 µM | 0.585 µM and 1.27 µM |
| COc1ccc(N(C)Sc2ccccc2)cc1 | > 100 µM | > 100 µM | > 100 µM | > 100 µM | > 100 µM | > 100 µM | > 100 µM | > 100 µM |  | > 100 µM | > 100 µM | > 100 µM | 96.6 µM |  |  |
| COc1cc(Cn2c(=S)ss/c2=N\C(=S)N(C)C)cc(OC)c1OC | > 100 µM | 12.8 µM | > 100 µM | > 100 µM | > 100 µM | > 100 µM | > 100 µM | > 66.2 µM | > 100 | > 75.7 µM | > 100 µM | > 100 µM |  |  |  |
| O=C(Cc1ccccc1)NN1C(=O)C(Cl)C1c1ccc([N+](=O)[O-])cc1 (stereo not drawn) | > 100 µM | > 100 µM | > 100 µM | > 100 µM | > 100 µM | > 100 µM | > 100 µM | > 100 µM |  | > 100 µM | > 100 µM | > 100 µM | > 100 µM |  |  |
